The values that follow come from patent publication US20260139007A1, “EPHA4 ANTAGONISTS AND USES THEREOF” (SANFORD BURNHAM PREBYS MEDICAL DISCOVERY INSTITUTE, priority 2023, published 2026).

The nature of series [1]: In vivo half-life: active compound remaining in mouse blood, deduced from apparent IC50 of plasma in the EphA4-ephrinA5 ELISA. Conditions: mouse; for blood concentration: 0.8 mg/mouse. As for the experimental part: To examine the persistence of compounds in the blood circulation, an approach was devised to determine the concentration of compound in mouse blood by taking advantage of the ELISA measuring inhibition of EphA4-ephrinA5 interaction.
Lipidated compounds dissolved in DMSO were diluted in […] PBS (to a 5% final DMSO concentration) or in […] PBS supplemented with 20 or 40 mg/mL BSA or 6.5 mM methyl-β-cyclodextrin for intravenous or intraperitoneal injection. Neutral pH of the compound solution was verified before injection. PEGylated compounds were dissolved in […] PBS before intraperitoneal injection. Peptides were sterile filtered before administration. Blood from each mouse was collected at 3 different time points after compound injection, the first 2 times by retro-orbital bleeding and the third time by terminal cardiac bleeding under deep anesthesia. Red blood cells were removed by centrifugation from blood treated with heparin and the resulting plasma was frozen in aliquots.
For each time point, a dose-response curves by measuring inhibition of EphA4-ephrinA5 binding at different plasma dilutions was obtained.
Background: ELISA stands for enzyme-linked immunosorbent assay.

Another series concerns the target T1, EphA4 (Homo sapiens, UniProt P54764).
T1 construct: expressed in transfected cells; host or cells: HEK-EphA4 cells (immortalized cells stably transfected)
In words: EphA4 Y596 phosphorylation (activation) in cells stimulated with ephrinA5-Fc. The series is classed as cell-based. The conditions noted are these: EphA4 tyrosine phosphorylation in cells stimulated with ephrin-A5. The method, then: Immortalized cells stably transfected to express FLAG-tagged EphA4 were cultured at 37° C. in Dulbecco's Modified Eagle Medium (DMEM; #10-013-CV, Corning/Thermo Fisher Scientific) containing 10% fetal bovine serum (FBS) with 1% antibiotic-antimycotic solution (#30-004-Cl, Corning). To assess inhibition of EphA4 activation by compounds in cells, the cells were plated in 48-well plates.
For ELISAs, high binding capacity polystyrene 96-well plates were coated overnight at 4° C. with 1 μg/mL goat anti-FLAG antibody (#F3165, Sigma-Aldrich) in 50 μL/well borate buffer (0.1 M boric acid, 0.1 M Na borate, pH 8.7). […] OD450 was then measured.

Series [2] is described as follows: Solubility of lipidated compounds. The series is classed as physicochemical.
Series [3] has as its system EphA4 Fc. In words: ELISA inhibition of ephrin-A5 AP binding to EphA4 Fc in the presence of HSA, BSA or methyl-β-cyclodextrin. Conditions: for effect of HSA on potency: presence vs absence of 40 mg/mL HSA, tested in parallel; for IC50: read-out: IC50 ± SE (n) by ELISA with HSA or BSA.
From the text: To determine whether albumin binding to the lipidated compounds affects their ability to bind EphA4, the effects of delipidated human serum albumin (HSA) on the inhibitory potency of some of the compounds were examined.
Series [4] has as its system EphA4 Fc. In words: ELISA measuring inhibition of ephrin-A5 AP binding to immobilized EphA4 Fc. Details: species or system human or mouse.
Setting [5] is: in vivo, ip, IP (intraperitoneal administration), read-out: In vivo half-life (converted).
The mark [6] stands for this setting: ELISA inhibition of EphA4-ephrin-A5 interaction.
Setting [7] is: ELISA inhibition of EphA4-ephrin-A5 interaction, read-out: IC50 (approximate).
[8] abbreviates: inhibition of ephrin-A5 AP binding to EphA4 Fc, averages of all experiments, read-out: IC50 ± SE (n) by ELISA.
Where [9] appears, read: in vivo, iv, IV (intravenous administration), read-out: In vivo half-life (converted).

One may read the IC50 as the concentration that inhibits the measured activity by half.

Several values for one entry are separate records, joined by “and”; a condition that tells them apart may be missing. Identical values can stand only once. Like-named read-outs stand apart in the source and are kept apart here. Bridge positions count the residues as written; N and C are the ends. Square brackets hold non-standard residues; d marks the D form. Peptide text beside a SMILES is read from it. * marks the point of attachment. Octanoyl = CCCCCCCC(=O)*; βAla = NCCC(=O)O

T1 sequence (P54764 20-986, species assumed): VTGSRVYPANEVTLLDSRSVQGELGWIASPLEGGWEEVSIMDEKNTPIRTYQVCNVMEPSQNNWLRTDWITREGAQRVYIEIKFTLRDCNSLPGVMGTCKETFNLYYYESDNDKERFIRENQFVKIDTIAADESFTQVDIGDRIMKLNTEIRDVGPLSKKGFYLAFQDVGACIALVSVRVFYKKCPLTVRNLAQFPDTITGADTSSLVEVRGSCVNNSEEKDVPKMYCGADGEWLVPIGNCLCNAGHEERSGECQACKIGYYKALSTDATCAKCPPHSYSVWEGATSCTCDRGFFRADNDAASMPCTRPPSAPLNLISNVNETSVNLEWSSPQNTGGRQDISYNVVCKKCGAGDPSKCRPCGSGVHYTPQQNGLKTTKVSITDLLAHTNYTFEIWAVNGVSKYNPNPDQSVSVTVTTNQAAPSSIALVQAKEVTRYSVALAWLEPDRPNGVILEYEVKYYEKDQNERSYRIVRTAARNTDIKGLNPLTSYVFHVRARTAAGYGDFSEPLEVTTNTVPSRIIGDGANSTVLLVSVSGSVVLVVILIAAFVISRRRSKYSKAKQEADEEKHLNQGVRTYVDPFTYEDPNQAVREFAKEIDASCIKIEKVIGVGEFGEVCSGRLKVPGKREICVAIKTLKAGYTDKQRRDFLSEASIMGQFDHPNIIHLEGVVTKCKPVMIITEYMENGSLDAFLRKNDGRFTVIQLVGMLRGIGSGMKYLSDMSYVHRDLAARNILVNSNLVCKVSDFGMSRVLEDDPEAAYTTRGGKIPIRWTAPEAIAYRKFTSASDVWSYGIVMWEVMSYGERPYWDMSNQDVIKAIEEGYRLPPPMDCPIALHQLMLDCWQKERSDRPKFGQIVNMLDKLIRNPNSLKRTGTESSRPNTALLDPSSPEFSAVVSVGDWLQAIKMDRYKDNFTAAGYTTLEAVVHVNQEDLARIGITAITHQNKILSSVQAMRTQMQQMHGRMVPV

As for “[Cyc (4,12)] H2N-(βA)PYCVYR(βA)SWSC(Ahx)(Ahx)(Ahx)(Pra/mPEG30-triazole)-OH (XPYCVYRXSWSCXXX; non-natural residues; cyclised or stapled) [APY-d3-PEG4]”, the “t1/2 in mouse circulation” value in series [1] (in vivo) was around 660 min. For the same compound, the blood concentration is around 9000 nM in series [1] (in vivo, ip); around 3000 nM in series [1] (in vivo, ip, 20 h); around 400 nM in series [1] (in vivo, ip, 48 h). Further, the “inhibitory potency lower than that of APY-d3” value in the series with EphA4 is recorded as 2-3 fold.

As for `CCCCCCCCCCCC(=O)N[C@@H](CCC(=O)N[C@@H](CCC(=O)NCCCC[C@H](NC(=O)CNC(=O)CNC(=O)[C@@H]1CSSC[C@H](NC(=O)[C@H](Cc2ccc(O)cc2)NC(=O)[C@@H]2CCCN2C(=O)CCN)C(=O)N[C@@H](C(C)C)C(=O)N[C@@H](Cc2ccc(O)cc2)C(=O)N[C@@H](CCCNC(=N)N)C(=O)NCCC(=O)N[C@@H](CO)C(=O)N[C@@H](Cc2c[nH]c3ccccc23)C(=O)N[C@@H](CO)C(=O)N1)C(=O)NCC(N)=O)C(=O)O)C(=O)O` [Compound 15], the half-life is 30 to 60 min in series [1] (setting [5]) and around 40 min in series [1] (in vivo, read-out: t1/2 in mouse circulation). In addition, the “solubility” value in series [2] is recorded as “acceptable solubility”. For the same compound, in the series with EphA4 Fc [3], the “effect of HSA on potency” value was “dramatically decreased”. In the series with EphA4 Fc [4] (setting [6]), the “potency compared with APY-d3” value was “comparable to APY-d3”. Besides, the IC50 at EphA4 Fc [4] (setting [7]) is ~50 nM and ~30 nM.

On to `CC[C@H](C)[C@H](NC(=O)[C@H](CC(C)C)NC(=O)[C@H](CCCNC(=N)N)NC(=O)[C@@H]1CSSC[C@H](NC(=O)[C@H](Cc2ccc(O)cc2)NC(=O)[C@@H]2CCCN2C(=O)CCN)C(=O)N[C@@H](C(C)C)C(=O)N[C@@H](Cc2ccc(O)cc2)C(=O)N[C@@H](CCCNC(=N)N)C(=O)NCCC(=O)N[C@@H](CO)C(=O)N[C@@H](Cc2c[nH]c3ccccc23)C(=O)N[C@@H](CO)C(=O)N1)C(=O)N[C@@H](CCC(=O)O)C(=O)N[C@@H](CC(=O)O)C(=O)N[C@H](C(=O)N[C@H]1CSSC[C@@H](C(=O)N[C@@H](CC(C)C)C(=O)N[C@@H](Cc2c[nH]c3ccccc23)C(=O)N[C@@H](CCC(=O)O)C(=O)N[C@@H](CC(=O)O)C(=O)N[C@@H](CC(=O)O)C(N)=O)NC(=O)CNC(=O)[C@H](Cc2c[nH]c3ccccc23)NC(=O)[C@H](CCCNC(=N)N)NC(=O)[C@@H]2CCCN2C(=O)[C@H](CC(C)C)NC1=O)[C@@H](C)CC` [Compound 21] (H-[βAla]PYCVYR[βAla]SWSCRLIEDICLPRWGCLWEDD-NH2; disulfide 4-12, 19-25), for which the half-life in series [1] (setting [5]) is around 40 min. In addition, in the series on EphA4 Fc [3] (20 mg/mL bovine serum albumin), the “decrease in potency in the presence of bovine serum albumin” value is around 8 fold. Besides, the IC50 on EphA4 Fc [3] (20 mg/ml BSA) was 130 ± 10 nM; on EphA4 Fc [4] (setting [8]) it was 18 ± 4 nM. Besides, the “potency compared with APY-d3” value in the series on EphA4 Fc [4] (setting [6]) was “as potent as APY-d3”.

As for `CCCCCCCCCCCC(=O)NCCCC[C@H](NC(=O)CNC(=O)CNC(=O)[C@@H]1CSSC[C@H](NC(=O)[C@H](Cc2ccc(O)cc2)NC(=O)[C@@H]2CCCN2C(=O)CCN)C(=O)N[C@@H](C(C)C)C(=O)N[C@@H](Cc2ccc(O)cc2)C(=O)N[C@@H](CCCNC(=N)N)C(=O)NCCC(=O)N[C@@H](CO)C(=O)N[C@@H](Cc2c[nH]c3ccccc23)C(=O)N[C@@H](CO)C(=O)N1)C(=O)NCC(N)=O` [Compound 12], the In vivo half-life in series [1] (IV (intravenous administration)) was around 30 min. Besides, in series [1] (setting [9]), the half-life was 30 to 42 min. In addition, the IC50 on EphA4 Fc [3] (40 mg/mL delipidated HSA) came to 920 ± 180 nM; at EphA4 Fc [4] (setting [8]), 240 ± 30 nM.

For the compound `CCCCCCCC(=O)NCCCC[C@@H]1NC(=O)[C@H](Cc2ccc(O)cc2)NC(=O)[C@H](C(C)C)NC(=O)[C@@H](NC(=O)[C@H](Cc2ccc(O)cc2)NC(=O)[C@@H]2CCCN2C(=O)CCN)CSSC[C@@H](C(=O)NCC(=O)NCC(=O)N[C@@H](CCCNC(=N)N)C(=O)NCC(N)=O)NC(=O)[C@H](CO)NC(=O)[C@H](Cc2c[nH]c3ccccc23)NC(=O)[C@H](CO)NC(=O)CCNC1=O` [Compound 5] (H-[βAla]PYCVYK(Octanoyl)[βAla]SWSCGGRG-NH2; disulfide 4-12), the “% of compound remaining in the blood” value in series [1] (10 min after intravenous injection, in PBS with 5% DMSO) is 5%. For the same compound, the half-life in series [1] (setting [9]) was below 10 min. Further, the IC50 turned out to be 75 ± 24 nM at EphA4 Fc [3] (40 mg/mL delipidated HSA) and 26 ± 5 nM on EphA4 Fc [4] (setting [8]).

As to `CCCCCCCCCCCCCC(=O)N[C@@H](CCC(=O)N[C@@H](CCC(=O)NCCCC[C@H](NC(=O)CNC(=O)CNC(=O)[C@@H]1CSSC[C@H](NC(=O)[C@H](Cc2ccc(O)cc2)NC(=O)[C@@H]2CCCN2C(=O)CCN)C(=O)N[C@@H](C(C)C)C(=O)N[C@@H](Cc2ccc(O)cc2)C(=O)N[C@@H](CCCNC(=N)N)C(=O)NCCC(=O)N[C@@H](CO)C(=O)N[C@@H](Cc2c[nH]c3ccccc23)C(=O)N[C@@H](CO)C(=O)N1)C(=O)NCC(N)=O)C(=O)O)C(=O)O` [Compound 16], in series [1] (setting [5]), the half-life was around 120 min. Moreover, the “effect of methyl-β-cyclodextrin on inhibitory potency” value with EphA4 Fc [3] (6.5 mM methyl-β-cyclodextrin vs buffer) is given as “does not affect the inhibitory potency”. In addition, in the series on EphA4 Fc [3], the “effect of HSA on potency” value was “dramatically decreased”. Moreover, the IC50 on EphA4 Fc [3] (40 mg/mL delipidated HSA) is 1370 nM; at EphA4 Fc [4] (setting [7]), around 80 nM; at EphA4 Fc [4] (setting [8]) it was 77 ± 9 nM. Besides, the “decrease in potency compared to compound 15” value in the series on EphA4 Fc [4] (C14 myristoyl vs C12 lipid, γGluγGlu spacer) is reported as 2-3 fold.
